Earlier results in US20240115591A1, “THERAPEUTIC METHODS AND COMPOSITIONS FOR TREATING BILIARY TRACT CANCER USING DEVIMISTAT” (Cornerstone Pharmaceuticals, Inc., priority 2020, published 2024).

Experiments:
[1] = system: locally advanced or metastatic BTC; conditions: for OS (overall survival): 410 patients with locally advanced or metastatic BTC, phase III ABC-02
[2] = ABC-02, patients with advanced BTC

In the case of `Nc1ccn([C@@H]2O[C@H](CO)[C@@H](O)C2(F)F)c(=O)n1` [gemcitabine, 2′-deoxy-2′,2′-difluorocytidine (β-isomer)], the “OS (overall survival)” value [1] is listed as 8.1 months.
For gemcitabine cisplatin, the “OS (overall survival)” value [1] is listed as 11.7 months, the objective response rate ([1]; ABC-02, combination arm) is listed as 26.1% and the “hazard ratio (HR) for OS” value ([1]; gemcitabine cisplatin arm versus gemcitabine alone arm, 95% CI 0.52 to 0.80, p<0.001) is listed as 0.64. For the same molecule, the “historical ORR (CR+PR)” value ([1]; historical estimate from Valle et al. 2010, used as null hypothesis for the planned phase 2) was 25%, the “grade 3 and 4 adverse event: abnormal liver function” value [2] was 16.7% and the “grade 3 and 4 adverse event: anemia” value [2] was 7.6%. The “grade 3 and 4 adverse event: deep vein thrombosis” value [2] was 2%, the “grade 3 and 4 adverse event: fatigue” value [2] was 18.7% and the “grade 3 and 4 adverse event: impaired renal function” value [2] was 1.5%. The “grade 3 and 4 adverse event: nausea” value [2] was 4%, the “grade 3 and 4 adverse event: neutropenia” value [2] was 25.3% and the “grade 3 and 4 adverse event: thrombocytopenia” value [2] was 15.7%. The “grade 3 and 4 adverse event: thromboembolic event” value [2] was 3.5%, the “grade 3 and 4 adverse event: vomiting” value [2] was 5.1% and the “grade 3 and 4 adverse event: infection” value (in vivo) was 18.2%.
